Measurements taken from EP2420255A2, “Polypeptide inhibitors of urokinase type plasminogen activator” (Ecole Polytechnique Federale De Lausanne (EPFL), priority 2010, dated 2012).
Where two headings read alike, the source gives them in different places. Numbered stars: 1 amine (or outer) side, 2 acyl side, 3 side chain; on linkers, the order of the positions; unused ones are H or OH. Bridge positions count the residues as written; N and C are the ends. Ends that are not written are not given here. Peptide text beside a SMILES is read from it. TBMB = c1c(C[*:1])cc(C[*:3])cc1C[*:2]

Key:
uPA [1] = molecular target: T1, uPA (Homo sapiens, UniProt P00749); conditions: literature; cited from earlier work
thrombin = conditions: literature; cited from earlier work
tPA = tPA (Homo sapiens, UniProt P00750); conditions: literature; cited from earlier work
factor Xa = conditions: literature; cited from earlier work
plasma kallikrein = plasma kallikrein (Homo sapiens, UniProt P03952); conditions: literature; cited from earlier work
[2] = tested on: murine lung carcinoma model; conditions: literature; cited from earlier work
MDA-MB-231 cells = assay: Cell viability assay (CellTiter-Glo, ATP concentration); format: cell-based, human; conditions: 24 hrs, UK18 1-100 µM
Method: MDA-MB-231 human breast adenocarcinoma cells (ATCC) were cultured in RPMI medium (RPMI-1640 containing 25 mM HEPES and L-glutamine; NEAA, 100X Stock, and 1 unit/ml penstrep, 20'000 units/ml penicillin and 20'000 units/ml streptomycin stock, Lonza, Visp, Switzerland) supplemented with 5% v/v fetal calf serum (FCS, Lonza) at 37 °C in a humidified 5% CO2/95% air atmosphere.
The effect of UK18 on the MDA-MB-231 cell viability was measured by using the CellTiter-Glo Luminescent Cell Viability Assay (Promega, Madison, WI, USA). The assay measures the number of viable cells in culture based on the ATP concentration. 200 µL of 2.0 x 10^5 MDA-MB-231 cells/ml in RPMI media (FCS-free) supplemented with 0.2% w/v BSA were inoculated at a density of 4.0 x 10^4 cells per well in 96-well opaque walled polystyrene plate tissue culture treated (Corning Incorporated, Corning, NY, USA) for 24 hrs at 37 °C in a humidified 5% CO2/95% air atmosphere. The culture supernatant was then removed and 100 µl of new RPMI media (FCS-free) supplemented with 0.2% w/v BSA containing different three-fold dilution concentrations of UK18 (1, 3.3, 10, 33 and 100 µM) were added to the cells and the plate incubated for 24 hrs at 37 °C in a humidified 5% CO2/95% air atmosphere. […] The luminescence signal was finally recorded using a Tristar LB 941 microplate reader (Berthold Technologies, Bad Wildbad, Germany). […]

uPA [3] = molecular target: T1, uPA; assay: Activity determination of chemically synthesized inhibitors, residual protease activity; format: biochemical; design: human uPA (UPA-LMW, from human urine, 33 kDa); purchased Molecular Innovations, Novi, MI, USA UPA-LMW; host or cells: human urine; conditions: synthetic peptide-TBMB conjugate, pH 7.4, 25°C
Method: (§1) Peptides with a free amine at the N-terminus and an amide at the C-terminus were chemically synthesized on a 50 mg to 1 g scale by solid phase chemistry (JPT Peptide Technologies, Berlin, Germany or GL Biochem Ltd., Shanghai, China). The crude peptides (1 mM) in 1 ml 5% v/v DMSO, 65% v/v 20 mM NH4HCO3, pH 8.0 and 30% v/v ACN, were reacted with TBMB (1.2 mM) for 1 hr at 30 °C. The reaction product was purified by preparative reversed-phase high performance liquid chromatography (HPLC) system (PrepLC 4000, Waters, Millford, MA, USA) and a Vydac C18 (218TP) column (22 x 250 mm) (Grace & Co., USA). At a flow rate of 20 ml/min, a linear gradient was applied with a mobile phase composed of eluant A (0.1% v/v aqueous trifluoroacetic acid (TFA) solution, 99.9 % v/v H2O) and eluant B (94.9% v/v ACN, 5% v/v H2O and 0.1 % v/v TF A). The purified peptides were freeze-dried and dissolved in H2O for activity measurements.
(§2) Residual activities were measured in buffer containing 10 mM Tris-Cl, pH 7.4, 150 mM NaCl, 10 mM MgCl2, 1mM CaCl2, 0.1% w/v BSA, 0.01% v/v Triton-X100 and 5% v/v DMSO in volume of […]. […] Absorption and fluorescence intensity were measured with a Spectramax absorption plate reader (recording at 410 nm; Molecular Devices, USA) and a Spectramax Gemini fluorescence plate reader (excitation at 355 nm, emission at 460 nm; Molecular Devices, USA), respectively. […]

Murine uPA = molecular target: T2, Murine uPA (Mus musculus, UniProt P06869); assay: Specificity determination of chemically synthesized inhibitors, residual protease activity; format: biochemical; conditions: murine uPA versus human uPA
T2 construct: mouse uPA (MUPA-LMW, recombinantly produced in insect cells, 31 kDa); purchased Molecular Innovations, Novi, MI, USA MUPA-LMW; host or cells: insect cells
Method: as §1, §2

uPA [4] = molecular target: T1, uPA; conditions: literature, cited from earlier work

Chain of plasma kallikrein (P03952 391-638 limits assumed, species assumed): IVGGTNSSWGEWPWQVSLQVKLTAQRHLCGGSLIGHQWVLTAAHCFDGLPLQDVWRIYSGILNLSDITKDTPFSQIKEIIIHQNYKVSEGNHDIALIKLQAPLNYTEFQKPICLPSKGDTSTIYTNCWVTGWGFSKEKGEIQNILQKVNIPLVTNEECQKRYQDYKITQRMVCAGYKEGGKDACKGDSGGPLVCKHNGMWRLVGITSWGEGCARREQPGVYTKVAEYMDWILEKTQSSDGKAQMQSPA
Chain of plasma kallikrein (P03952 20-390 partner limits assumed, species assumed): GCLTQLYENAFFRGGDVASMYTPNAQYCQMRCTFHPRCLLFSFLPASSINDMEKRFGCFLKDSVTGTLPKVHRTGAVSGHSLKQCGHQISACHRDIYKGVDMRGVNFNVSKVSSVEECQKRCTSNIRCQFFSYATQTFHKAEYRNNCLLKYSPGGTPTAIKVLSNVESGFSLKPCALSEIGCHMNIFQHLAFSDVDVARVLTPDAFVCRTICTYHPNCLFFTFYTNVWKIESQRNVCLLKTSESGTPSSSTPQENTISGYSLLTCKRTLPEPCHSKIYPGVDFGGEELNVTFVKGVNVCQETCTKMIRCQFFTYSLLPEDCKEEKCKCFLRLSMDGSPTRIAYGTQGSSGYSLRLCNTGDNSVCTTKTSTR
T2 sequence (P06869 180-433 limits assumed): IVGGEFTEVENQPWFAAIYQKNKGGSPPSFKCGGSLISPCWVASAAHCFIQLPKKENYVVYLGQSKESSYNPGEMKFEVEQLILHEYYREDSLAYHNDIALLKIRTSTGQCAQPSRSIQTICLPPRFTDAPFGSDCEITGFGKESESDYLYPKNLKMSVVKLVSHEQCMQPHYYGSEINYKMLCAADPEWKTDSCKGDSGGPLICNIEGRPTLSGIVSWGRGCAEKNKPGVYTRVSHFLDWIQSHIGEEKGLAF
Chain of tPA (P00750 36-562, species assumed): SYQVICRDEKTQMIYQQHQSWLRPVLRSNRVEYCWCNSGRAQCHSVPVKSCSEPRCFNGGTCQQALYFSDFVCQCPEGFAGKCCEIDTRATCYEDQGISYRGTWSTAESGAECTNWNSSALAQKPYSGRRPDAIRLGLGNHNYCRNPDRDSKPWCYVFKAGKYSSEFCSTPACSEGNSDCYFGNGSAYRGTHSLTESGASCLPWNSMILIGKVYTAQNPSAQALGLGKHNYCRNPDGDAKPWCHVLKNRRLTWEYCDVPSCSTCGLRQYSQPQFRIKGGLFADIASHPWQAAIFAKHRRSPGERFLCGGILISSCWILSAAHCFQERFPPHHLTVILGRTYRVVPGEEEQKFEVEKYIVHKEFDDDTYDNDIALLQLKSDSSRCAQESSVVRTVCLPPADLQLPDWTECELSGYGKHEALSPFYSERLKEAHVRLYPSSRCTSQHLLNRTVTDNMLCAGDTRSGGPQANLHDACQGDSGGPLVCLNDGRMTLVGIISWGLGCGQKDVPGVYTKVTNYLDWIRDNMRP

Molecule: N=C(N)c1ccc(CNC(=O)[C@H](CO)NC(=O)[C@@H](CO)NS(=O)(=O)Cc2ccccc2)cc1 [CJ-463, benzylsulfonyl-D-Ser-Ser-4-amidinobenzylamide]
- Ki (uPA [1]): 20 nM
- inhibition (thrombin): does not inhibit significantly
- inhibition (tPA): does not inhibit significantly
- inhibition (factor Xa): does not inhibit significantly
- inhibition (plasma kallikrein): does not inhibit significantly
- primary tumour growth and metastasis formation [2]: reduce primary tumour growth and metastasis formation

Molecule: CC(C)[C@@H]1NC(=O)[C@H](CCC(=O)O)NC(=O)[C@H](Cc2ccc(O)cc2)NC(=O)[C@H](CCCN=C(N)N)NC(=O)[C@H](CO)NC(=O)[C@@H](NC(=O)[C@H](C)N)CSCc2cc3cc(c2)CSC[C@H](NC(=O)[C@H](CC(=O)O)NC1=O)C(=O)N[C@@H](CCCN=C(N)N)C(=O)NCC(=O)N[C@@H](CCCN=C(N)N)C(=O)NCC(=O)N[C@@H](CO)C(=O)N[C@@H](C)C(=O)N[C@H](C(=O)NCC(N)=O)CSC3 [UK18] (H-ACSRYEVDCRGRGSACG-NH2; linker 2-9-16 via TBMB)
- cell viability (MDA-MB-231 cells): not toxic
- IC50 (uPA [3]): 47.2 nM
- Ki (uPA [3]; corresponding to the IC50): 30.1 nM

Molecule: CC(C)[C@@H]1NC(=O)[C@H](CCC(=O)O)NC(=O)[C@H](Cc2ccc(O)cc2)NC(=O)[C@H](CCCNC(=N)N)NC(=O)[C@H](CO)NC(=O)[C@@H](NC(=O)[C@H](C)N)CSCc2cc3cc(c2)CSC[C@H](NC(=O)[C@H](CC(=O)O)NC1=O)C(=O)N[C@@H](CCCNC(=N)N)C(=O)NCC(=O)N[C@@H](CCCNC(=N)N)C(=O)NCC(=O)N[C@@H](CO)C(=O)N[C@@H](C)C(=O)N[C@H](C(=O)NCC(N)=O)CSC3 [UK18] (H-ACSRYEVDCRGRGSACG-NH2; linker 2-9-16 via TBMB)
- Ki higher than the Ki of human uPA (Murine uPA): around 1400 times

Molecule: CSWRGLENHRMC (cysteine pairing not given here) [upain-1]
- Ki (uPA [4]; at pH 6.0): 6700 nM
- Ki (uPA [4]; at physiological pH): 29900 nM
